{"source": "patent US20230082929A1", "about": "“METHODS OF GENERATING AND USING SENESCENT-INDUCED CELLS FOR TREATMENT OF CANCER AND COMPOSITIONS RELATING THERETO” (The Wistar Institute of Anatomy and Biology, priority 2020, published 2023)", "key": {"UPK10 cells": {"tested_on": "UPK10 cells", "experiment": "Senescence induction in UPK10 cells (SA-β-Gal, SPiDER SA-β-Gal, immunoblot)", "assay_type": "cell-based, mouse", "description": "(§1) SA-β-Gal staining was performed as previously described (Nacarelli et al., 2019). Briefly, cells were fixed for 5 mins at room temperature in 2% formaldehyde/0.2 glutaraldehyde in PBS. After washing twice with PBS, cells were stained at 37° C. overnight in a non-CO2 incubator in staining solution (40 mM Na2HPO4, pH 6.0, 150 mM NaCl, 2 mM MgCl2, 5 mM K3Fe(CN)6, 5 mM K4Fe(CN)6, and 1 mg/ml X-gal. After counterstaining with Nuclear Fast Red solution (Ricca, Cat. No: R5463200500), slides were subjected to an alcohol dehydration series and mounted with Permount (FisherScientific. Cat. No: SP15-100). Slides were examined using a Zeiss AxioImager A2.\n(§2) UPK10 and ID8 cells were treated with […], or a combination for three days. The drugs were then released from drug treatment and cultured for three days or extended period as indicated. The senescent cells were labelled with SPiDER-0 Gal Cellular Senescence Detection Kit (Dojindo, Cat. No: SG02-10) following the manufacture's instruction. Both senescent and non-senescent cells were sorted using flow cytometry.\n(§3) Cells were lysed in 1× sample buffer (2% SDS, 10% glycerol, 0.01% bromophenol blue, 62.5 mM Tris, pH 6.8, and 0.1 M DTT) and heated to 95° C. for 10 min. Protein concentrations were determined using the protein assay dye (Bio-Rad. Cat. No: #5000006) and Nanodrop. An equal amount of total protein was resolved using SDS-PAGE gels and transferred to PVDF membranes at 110 V for 2 hours at 4° C. Membranes were blocked with 5% nonfat milk in TBS containing 0.1% Tween 20 (TBS-T) for 1 hour at room temperature. Membranes were incubated overnight at 4° C. in the primary antibodies in 4% BSA/TBS+0.025% sodium azide. Membranes were washed four times in TBS-T for 5 min at room temperature, after which they were incubated with HRP-conjugated secondary antibodies (Cell Signaling Technology. Cat. No: 7076S, 7074S) for 1 hour at room temperature. After washing four times in TBS-T for 5 min at room temperature, proteins were visualized on film after incubation with SuperSignal West Pico PLUS Chemiluminescent Substrate (Thermo Fisher Scientific. Cat. No: 34580)."}, "SASP factors [1]": {"tested_on": "SASP factors", "experiment": "SASP factor expression (qRT-PCR) and secretion (antibody array) in UPK10 cells", "assay_type": "cell-based, mouse", "description": "UPK10 and ID8 cells were treated with […], or a combination for three days. The drugs were then released from drug treatment and cultured for three days or extended period as indicated. The senescent cells were labelled with SPiDER-0 Gal Cellular Senescence Detection Kit (Dojindo, Cat. No: SG02-10) following the manufacture's instruction. Both senescent and non-senescent cells were sorted using flow cytometry. Mouse Cytokine Array C1 kit (RayBiotech. Cat. No: AAM-CYT-1-2) was used for cytokine analysis following the manufacturer's guidelines. Briefly, cells were washed once and cultured in serum-free medium for 48 hrs. Conditioned medium was filtered (0.2 μm) and then subjected to cytokine-array analysis. After collection of conditional media, the cell number of each sample was counted. The intensities of array dots were visualized on film after incubation with SuperSignal West Pico PLUS Chemiluminescent Substrate (Thermo Fisher Scientific. Cat. No: 34580). The integrated density was measured using Image J and normalized to the cell number from which the conditioned medium was generated. Total RNA was isolated using Trizol (Invitrogen) according to the manufacturer's instruction. Extracted RNAs were used for reverse-transcriptase PCR (RT-PCR) with High-Capacity cDNA Reverse Transcription Kit (Thermo fisher, Cat. No: 4368814). Quantitative PCR (qPCR) was performed using iTaq™ Universal SYBR® Green Supermix (BIO-RAD, Cat. No: 1725121) and QuantStudio 3 Real-Time PCR System."}, "TOP1cc": {"molecular_target": "T1, TOP1cc (Mus musculus, UniProt Q04750)", "T1 construct": "endogenous in cells; host or cells: UPK10 mouse ovarian cancer cells, sorted senescent and non-senescent fractions", "T1 sequence (Q04750 1-767)": "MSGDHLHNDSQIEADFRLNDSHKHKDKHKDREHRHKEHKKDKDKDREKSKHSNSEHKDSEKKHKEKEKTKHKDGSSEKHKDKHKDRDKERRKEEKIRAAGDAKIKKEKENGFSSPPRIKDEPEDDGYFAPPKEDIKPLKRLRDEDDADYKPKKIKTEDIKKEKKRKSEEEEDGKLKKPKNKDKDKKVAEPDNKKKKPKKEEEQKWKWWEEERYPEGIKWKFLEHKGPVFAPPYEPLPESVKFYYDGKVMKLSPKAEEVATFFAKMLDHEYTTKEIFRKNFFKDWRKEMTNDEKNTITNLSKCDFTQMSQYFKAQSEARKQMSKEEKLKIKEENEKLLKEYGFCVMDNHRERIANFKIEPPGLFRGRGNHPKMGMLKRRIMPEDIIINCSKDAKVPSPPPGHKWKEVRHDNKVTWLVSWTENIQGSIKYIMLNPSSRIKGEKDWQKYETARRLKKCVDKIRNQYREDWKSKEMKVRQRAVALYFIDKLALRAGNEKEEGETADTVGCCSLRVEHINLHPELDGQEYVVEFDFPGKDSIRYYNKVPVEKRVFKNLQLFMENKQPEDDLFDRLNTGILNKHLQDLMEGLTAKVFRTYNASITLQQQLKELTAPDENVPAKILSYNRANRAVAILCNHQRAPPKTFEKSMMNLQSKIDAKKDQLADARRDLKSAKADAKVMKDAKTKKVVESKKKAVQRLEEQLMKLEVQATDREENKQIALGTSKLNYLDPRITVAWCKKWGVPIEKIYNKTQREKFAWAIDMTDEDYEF", "experiment": "Immunoblot of TOP1cc and SASP regulators in sorted UPK10 cells", "assay_type": "cell-based", "description": "as §2, §3\n• anti-Topoisomerase I-DNA Covalent Complexes (TOP1cc) (clone 1.1A) (Millipore. Cat. No: MABE1084), 1:1000 for slot blot • anti-TOP1 (Proteintech. Cat. No: 20705-1-AP), 1:1000 for immunoblotting • anti-cGAS (D9) (Santa Cruz. Cat. No: sc-515777), 1:1000 for immunoblotting; • anti-Cyclin A (H432) (Santa Cruz. Cat. No: sc-751), 1:1000 for immunoblotting; • anti-βactin (Sigma. Cat. No: A2228), 1:10000 for immunoblotting."}, "SASP factors [2]": {"tested_on": "SASP factors", "experiment": "SASP factor expression by qRT-PCR in ID8 cells", "assay_type": "cell-based, mouse", "description": "UPK10 and ID8 cells were treated with […], or a combination for three days. The drugs were then released from drug treatment and cultured for three days or extended period as indicated. The senescent cells were labelled with SPiDER-0 Gal Cellular Senescence Detection Kit (Dojindo, Cat. No: SG02-10) following the manufacture's instruction. Both senescent and non-senescent cells were sorted using flow cytometry. Total RNA was isolated using Trizol (Invitrogen) according to the manufacturer's instruction. Extracted RNAs were used for reverse-transcriptase PCR (RT-PCR) with High-Capacity cDNA Reverse Transcription Kit (Thermo fisher, Cat. No: 4368814). Quantitative PCR (qPCR) was performed using iTaq™ Universal SYBR® Green Supermix (BIO-RAD, Cat. No: 1725121) and QuantStudio 3 Real-Time PCR System."}, "ID8-Defb29/Vegf-a cells": {"tested_on": "ID8-Defb29/Vegf-a cells", "experiment": "Cisplatin-induced senescence, SA-β-gal staining of ID8-Defb29/Vegf-a cells", "assay_type": "cell-based, mouse", "conditions": "2 μM Cisplatin for 48 hours", "description": "For oncogene-induced senescence, IMR90 cells were infected with retrovirus produced by pBABE-puro-H-RAS^G12V (Addgene) at 37° C. for 24 hr. A second round of infection was performed on the same target cells. Infected cells were drug-selected using 3 μg/ml puromycin (Nacarelli et al., 2019). For Etoposide-induced senescence, IMR90 or OVCAR3 cells at approximately 60-70% confluency were treated with 50 μM or 2 μM Etoposide for 48 hours. The treated cells were cultured in fresh medium and harvested at day 8. For Cisplatin-induced senescence, OVCAR3 or ID8-Defb29/Vegf-a cells at approximately 60-70% confluency were treated with 2 μM Cisplatin for 48 hours. The treated cells were cultured in fresh medium and harvested at day 8.\nas §1"}, "[3]": {"conditions": "cisplatin three days, three days of release"}}, "data": [{"smiles": "CCc1c2c(nc3ccc(OC(=O)N4CCC(N5CCCCC5)CC4)cc13)-c1cc3c(c(=O)n1C2)COC(=O)[C@]3(O)CC", "note": "[irinotecan]", "values": [{"measurement": "percentage of senescent cells induced by cisplatin with or without irinotecan (SPiDER SA-β-Gal)", "setting": "UPK10 cells", "result": "comparable"}, {"measurement": "SA-β-Gal activity (SPiDER)", "setting": "UPK10 cells; irinotecan alone", "result": "also induced SA-β-Gal activity"}, {"measurement": "expression of SASP factors at the mRNA levels (qRT-PCR)", "setting": "SASP factors [1]; sorted senescent UPK10 cells induced by cisplatin", "result": "significantly increased the expression of SASP factors"}, {"measurement": "TOP1cc levels in sorted senescent cells", "setting": "TOP1cc; compared with cisplatin-induced senescent cells, UPK10", "result": "increased by irinotecan addition"}, {"measurement": "TOP1cc levels in sorted non-senescent cells", "setting": "TOP1cc; compared with vehicle control treated non-senescent cells, UPK10", "result": "notably higher"}, {"measurement": "SASP regulators phospho-p65 NF-κB and phosphor-p38 MAPK", "setting": "TOP1cc; sorted senescent UPK10 cells", "result": "increase in SASP regulators such as phospho-p65 NF-κB and phosphor-p38 MAPK"}, {"measurement": "SASP expression in cisplatin-induced senescent ID8 cells", "setting": "SASP factors [2]", "result": "boosts SASP expression"}]}, {"smiles": "N.N.[Cl][Pt][Cl]", "note": "[cisplatin, Cisplatin]", "values": [{"measurement": "treated cells in which senescence was induced", "setting": "ID8-Defb29/Vegf-a cells", "result": "~100", "unit": "%"}, {"measurement": "cell proliferation marker cyclin A", "setting": "UPK10 cells; [3]", "result": "decrease in cell proliferation marker cyclin A"}, {"measurement": "markers of senescence (SA-β-Gal activity, p16, γH2AX)", "setting": "UPK10 cells; [3]", "result": "induction of markers of senescence including senescence-associated β-galactosidase (SA-β-Gal) activity, p16 and γH2AX"}, {"measurement": "concentration chosen on optimal induction of SASP factors IL1β, IL8, CXCL10 in a dose-titration study", "setting": "SASP factors [1]; UPK10 cells", "result": 10, "unit": "µM"}]}, {"smiles": "Cc1ccc2c(=O)c3cccc(CC(=O)O)c3oc2c1C", "note": "[DMXAA]", "values": [{"measurement": "SASP factor levels compared with senescent cells sorted from cisplatin and irinotecan combination treatment", "setting": "SASP factors [1]; UPK10 cells", "result": "significantly lower levels"}, {"measurement": "expression and secretion of SASP factors", "setting": "SASP factors [1]; UPK10 cells, DMXAA as control", "result": "sufficient to increase the expression and secretion of SASP factors"}]}]}
